The structures appear in SMILES notation.

Series [1] can be described thus: pEEG deep learning drug class classifier. As to conditions: classifier trained with a set that did not include the drug, FIG. 25. The class given is in vivo.
From the text: Briefly, the network may be based on a bidirectional Long Short-Term Memory (LSTM, 32 hidden units) layer, two fully connected layers (“elu and “softmax” activations), batch normalization and dropout layers. The model may be trained using cross-entropy loss function and “adam” optimizer, for at least 30-50 epochs. The last layer of the model may be a dense layer, which may provide probabilities for more than a dozen drug classes.
In some embodiments, to improve the robustness of the predictive model, independent implementations of a general model architecture may be built by randomly initializing the weights for the RNN. Final predictions may be derived from the model with highest accuracy, or from the average such as the median or mean results from all trained models. To check the accuracy of the resulting model system, different cross validation approaches may be used such as a n-samples-out, or n-doses-out, and/or a whole-drug-out, where an n-samples subset, an n-doses subset, and/or a whole drug, respectively, may be systematically removed from the training dataset, and the rest of the drugs may be used for training a new model. The excluded data may then be used for model validation as a test set. Model prediction may be done at a sample level, so as to get a prediction for a given drug-dose. […]
A short description of series [2]: SmartCube / behavioral platform total activity and Class signature. The class given is in vivo. From the text: In some embodiments, one or more techniques described herein may quantify at least one activity score that may be quantified based on a discriminability score between at least two datasets, where the discriminability score may refer to an accuracy of a classifier, or a quantity derived therefrom. At least one dataset is a control group. In some embodiments, one or more techniques described herein may quantify at least one similarity value, which is the complement of the at least one activity value, where at least two groups are compared.
In some embodiments, one or more techniques described herein may calculate the activity score between the two groups using, for example, without limitation, a binary machine learning classifier. In some embodiments, a discriminability score of the at least two groups, as assessed by the classifier, may be used as the at least one activity score, representing how phenotypically different the two groups are. For example, the at least two groups may refer to a treatment group and a vehicle group associated with the at least two datasets.
In some embodiments, one or more techniques described herein may utilize a machine learning algorithm to perform the following steps: obtaining a plurality of subsamples, where a number, k, of iterations of the plurality of subsamples of a larger group match sample size n of a smaller group. […]

Series [3] can be described thus: psychedelic-related behaviors (HTR, ESH, ELO) in behavioral platform videos. Format: in vivo, mice. From the text:
FIG. 71 illustrates a response curve for R-(−)-4-iodo-2,5-dimethoxyamphetamine (DOI), showing anxiolytic, another therapeutic signal, and the head twitch response (HTR) in accordance with one or more embodiments of the present disclosure. FIG. 71 represents a signature of DOI in a behavioral platform, where multiple classes can be collapsed into a few classes of interest. For example, multiple classes can be collapsed into five classes of interest for simplicity.
In some embodiments, the first step may be to generate a collection of ground-truth examples by manually identifying features corresponding to behaviors of interest (e.g., using a labelling software or platform to add labels identifying such features). Each experimental session can be recorded in terms of precise start and end frame which can set the predefined duration of the experimental session. For manual identification purposes, the system may use a top camera view, at a 50% slower viewing speed, although other angles from the other cameras and other sensors such as piezoelectric and thermal sensors may also be used, and the resulting data integrated. Class analysis (e.g., FIG. 71), on the other hand, may include data acquired from all sensors of a behavioral platform.
The disclosed embodiments can extract behavioral features corresponding to exemplary behaviors. The disclosed embodiments are not limited to any particular implementation of these features. In some embodiments, a behavioral feature can be implemented as a time-stamped indication that a behavior occurred at that time, or a Boolean value in a time series indicating the occurrence of a behavior. In some embodiments, a training dataset including observational data and corresponding, manually identified features can be used to train the machine learning classifier.
FIG. 76 illustrates graphs illustrating a quantification of psychedelic-related behaviors detected in behavioral platform videos: ear scratch with hind paw (ESH), head twitch response (HTR), and elongation-contraction (ELO) for LSD and DOI at two doses in accordance with one or more embodiments of the present disclosure. FIG. 76 indicates a number of occurrences of HTRs, ESH, and ELOs, in behavioral platform videos of mice treated with DOI, LSD or vehicle, in triplicates, were recorded during the periods of rest for a total of 12 minutes for each subject.

Series [4] in a line: SmartCube diagonal index (DD) similarity ranking and psychedelic profile. Format: in vivo. As to conditions: ranked among 90 reference drugs.
From the text: The similarity score for each of the dose-dose pairs of the T and R drugs was computed and used to calculate the diagonal index for each T-R drug pair or DDTiRj. For each Ti drug, the Rj drugs were then ranked by the corresponding DDTiRj.
The nature of series [5]: eye temperature by automated thermographic system of behavioral platform. Format: in vivo, mice. To be noted: various doses, FIG. 39. From the text:
In some embodiments, with regard to image calibration, in an experimental session, actual Peltier temperatures may be logged and saved along with the thermal camera video. The logged Peltier temperatures in Celsius can be paired to the optical density (OD) levels measured at the two Peltier ROIs in each corresponding frame, so that a linear calibration curve can be used to convert the OD of measured eye ROIs to degrees Celsius.
In some embodiments, the subject body, such as a mouse, can be segmented based on the optical density distribution on each frame. The contour of the mouse can be masked by finding the largest eight-connected objects in the binarized image as shown in FIG. 36. […] The size of the eye region relative to the mask and shape properties such as ‘Eccentricity’ (ratio of the distance between the foci of the ellipse and its major axis length) and ‘Solidity’ (proportion of the pixels in the convex hull that are also in the region, computed as Area/ConvexArea) can be measured to filter out false positives, when those parameters may be outside of the range learned from manually annotated ground truth examples.
In some embodiments, with regard to feature extraction, the average OD of automatically detected eye ROIs can be converted to Celsius based on the calibration curve. […]

The test system of series [6] is Q175 heterozygous (HET) mice model of Huntington Disease. Put plainly: DBSA query with Q175 HET target signature. The class given is in vivo. To be noted: Q175 HET at 6 months vs WT. From the text: In some embodiments, illustrative computing devices of present disclosure can be programmed with one or more techniques of the present disclosure to screen active reference compounds against an animal model of a neurodegenerative disease. As an example, in an application of DBSA, the Q175 heterozygous (HET) mice model of Huntington Disease was used to generate a target signature. Male and female cohorts of the Q175 HET model mice at 6 months were compared against the associated wild type (WT) controls. The DBSA Target signature model for the Q175 HET at 6 months is, for example, illustrated in FIG. 56. The target signature was used to query a database containing list signatures for reference compounds profiled at multiple doses.
(§1) Of interest was the identification of the atypical antidepressant tianeptine, currently not used for the treatment of HD in the clinic. […] A control group of WT mice was treated equally with saline. […] The beneficial effect of tianeptine was quantified using DRFA, which transforms the original subject feature profile to a non-redundant, decorrelated ranked 2D features space. The non-redundant decorrelated ranked features space was used to calculate the discrimination between control (WT treated with saline) and disease group (Q175 HET group treated with saline). The disease group (Q175 HET) treated with tianeptine was then projected onto this 2D space and its proximity to the control group was calculated.

Series [7] can be described thus: DBSA query with scopolamine target signature. Format: in vivo. From the text:
In some embodiments, illustrative computing devices of the present disclosure can be programmed with one or more techniques of the present disclosure to identify a novel cognitive enhancer compound by querying a large library of compounds profiled in by a behavioral platform. This example is based on a hypothesis that compounds with a drug-induced behavioral data profile that is reversed to that of scopolamine, which impairs cognition, are potentially cognitive enhancers. Other ways to impair cognition, such as other drugs or genetic manipulations, can be used to generate similar hypotheses.
The target signature was used to query a library of list signatures associated with active library and reference compounds to rank the compounds by their capacity to reverse the behavioral response to scopolamine.

In series [8] the test system is Q175 HET mice. Put plainly: treatment of Q175 HET mice, recovery quantified using DRFA. Format: in vivo. As to conditions: 20 mg/kg, FIG. 62. The procedure: as §1
Setting [9] is: periods of rest, total 12 minutes per subject, vs vehicle, two doses, FIG. 76.

Regarding `CN(C)CCC=C1c2ccccc2CCc2ccccc21` [Amitriptyline], the “therapeutic class signature by pEEG classifier” value in series [1] is recorded as “clean antidepressant signal”. In the case of `COc1cc(C[C@@H](C)N)c(OC)cc1I` [DOI, R-(−)-4-iodo-2,5-dimethoxyamphetamine], the “class signal of behavioral platform classifier” value in series [2] (FIG. 71, classes collapsed into five classes) is recorded as “predominant anxiolytic therapeutic signal”. In series [3] (FIG. 71, two doses), the “head twitch response (HTR) dose-response” value is on record as “high at both doses”. Also, in series [3] (setting [9]), the “number of occurrences of HTRs” value is on record as “most robust increase” and the “number of occurrences of ear scratches (ESH)” value is reported as “most robust increase”. In the case of `CCN(CC)C(=O)[C@@H]1C=C2c3cccc4[nH]cc(c34)C[C@H]2N(C)C1` [LSD, lysergic acid diethylamide], the “total activity as a function of dose” value in series [2] (calculated against vehicle control, activity rescaled 0% to 100%, threshold 70%, FIG. 64) is “only the 3 mg/kg and 5 mg/kg being different from vehicle in a statistically significant manner”. Besides, in series [3] (setting [9]), the “number of occurrences of ear scratches (ESH)” value is recorded as “did not result in occurrences of ear scratches” and the “number of occurrences of elongation-contraction (ELO)” value is “significant increase in the number of ELOs”. For the same compound, the “rank of diagonal index DDTT (similarity of a second run to a previous run of the same drug)” value in series [4] is “very high”. For `CNC(C)Cc1ccc2c(c1)OCO2` (centres unmarked) [MDMA, 3,4-methylenedioxymethamphetamine], the eye temperature result in series [5] is recorded as “dose-dependent increase of eye temperature”. Consider `CC(NC(C)(C)C)C(=O)c1cccc(Cl)c1` (centres unmarked) [bupropion], for which the “DBSA prediction against Q175 HET target signature” value (from here on “DBSA prediction”) in series [6] was “top predictions”. Also, the “therapeutic class signature by pEEG classifier” value in series [1] is listed as “more stimulant profile”. For `CN1C(=O)CN=C(c2ccccc2)c2cc(Cl)ccc21` [diazepam], in series [4], the “rank of diagonal index DDTT (similarity of a second run to a previous run of the same drug)” value was “third out of 90”. As to `COc1cc2c(cc1OC)C(=O)C(CC1CCN(Cc3ccccc3)CC1)C2` (centres unmarked) [donepezil], the “DBSA reverse list signature to scopolamine target signature” value in series [7] (FIG. 60) is given as “among the top reverse list signature predictions”. As to `COC(=O)C(c1ccccc1)C1CCCCN1` (centres unmarked) [methylphenidate], the “DBSA prediction” value in series [6] is on record as “top predictions”. The same measure, in the same setting: for `NC(=O)C[S+]([O-])C(c1ccccc1)c1ccccc1` (centres unmarked) [modafinil] the value was “top predictions”. For `CN1[C@@H]2C[C@@H](OC(=O)[C@H](CO)c3ccccc3)C[C@H]1[C@@H]1O[C@@H]12` [scopolamine], in series [7] (FIG. 59, at a different dose than the one used for the DBSA model), the “DBSA similarity to scopolamine target signature” value is reported as “among the most similar compounds”. For `CN1c2ccccc2C(NCCCCCCC(=O)O)c2ccc(Cl)cc2S1(=O)=O` (centres unmarked) [tianeptine], the “rescue of behavioral phenotype of Q175 HET mice” value in series [8] (acutely) and in series [8] (chronically (4-week regimen)) was “significantly rescued the behavioral phenotype” each time. Besides, the “DBSA prediction” value in series [6] was “novel prediction”.

These data come from patent US20250062040A1, “COMPUTER-BASED SYSTEMS FOR ACQUIRING AND ANALYZING OBS[…] DATA” (priority 2021, published 2025).
